Reference: ChEMBL document CHEMBL1201862, “PubChem BioAssay data set” (2004)
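Briefly, cells in 96-well plates were exposed to five compound concentrations for 48 h, and endpoints were estimated by linear interpolation. The concentration for 50% growth inhibition is given as GI50.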 Calls of active or inactive are those of the source. No stated cut-off is given here; in the data, active = GI50 up to about 1.1 µM and inactive = higher.

Experiments:
Assay in all cases: DTP human tumour cell line panel, 48 h
HOP-62 = tested on: HOP-62
786-0 = tested on: 786-0
SF-268 = tested on: SF-268
SNB-75 = tested on: SNB-75
IGROV-1 = tested on: IGROV-1
COLO 205 = tested on: COLO 205
UACC-62 = tested on: UACC-62
SK-MEL-28 = tested on: SK-MEL-28
UO-31 = tested on: UO-31
A549 = tested on: A549
RXF 393 = tested on: RXF 393
RPMI-8226 = tested on: RPMI-8226
ACHN = tested on: ACHN
OVCAR-5 = tested on: OVCAR-5
SK-MEL-2 = tested on: SK-MEL-2
KM12 = tested on: KM12
TK-10 = tested on: TK-10

Measured: GI50

O=C1C2ON3c4ccccc4C(=O)C3(c3ccccc3)C2C(=O)N1c1ccccc1 (stereo not drawn)
inactive: HOP-62 > 100 µM | 786-0 > 100 µM | SF-268 > 100 µM | SNB-75 > 100 µM | IGROV-1 > 100 µM | COLO 205 > 100 µM | UACC-62 > 100 µM | SK-MEL-28 > 100 µM | UO-31 > 100 µM | A549 > 100 µM | RXF 393 > 100 µM | RPMI-8226 > 100 µM | ACHN > 100 µM

CCOC(=O)C(=O)Nc1c(N(CC)CC)n2ccccc2nc1=O
inactive: HOP-62 > 100 µM | 786-0 > 100 µM | SF-268 > 100 µM | SNB-75 > 100 µM | IGROV-1 > 100 µM | COLO 205 > 100 µM | UACC-62 > 100 µM | UO-31 > 100 µM | A549 > 100 µM | OVCAR-5 > 100 µM | SK-MEL-2 > 100 µM | KM12 > 100 µM | RPMI-8226 > 100 µM | ACHN > 100 µM

O=c1ccn([C@H]2CSC[C@@H](CO)C2)c(=O)[nH]1
inactive: HOP-62 > 100 µM | 786-0 > 100 µM | SF-268 > 100 µM | SNB-75 56.4 µM | IGROV-1 > 100 µM | UACC-62 > 100 µM | SK-MEL-28 > 100 µM | UO-31 > 100 µM | A549 > 100 µM | TK-10 > 100 µM | OVCAR-5 > 100 µM | SK-MEL-2 > 100 µM | KM12 > 100 µM | RPMI-8226 > 100 µM | ACHN > 100 µM

CC(=O)OCC1OC(Sc2ccccn2)C=CC1OC(C)=O (stereo not drawn)
inactive: HOP-62 > 100 µM | 786-0 > 100 µM | SF-268 > 100 µM | SNB-75 > 100 µM | IGROV-1 > 100 µM | COLO 205 > 100 µM | UACC-62 > 100 µM | SK-MEL-28 > 100 µM | UO-31 > 100 µM | A549 > 100 µM | RXF 393 > 100 µM | TK-10 > 100 µM | OVCAR-5 > 100 µM | KM12 > 100 µM | ACHN > 100 µM

CC(=O)O[C@H]1C(=O)[C@@]2(C)C(C(OC(=O)c3ccccc3)[C@]3(O)CC(OC(=O)C(O)C(NC(=O)c4ccc(C)cc4)c4ccccc4)C(C)=C1C3(C)C)[C@]1(OC(C)=O)CO[C@@H]1C[C@@H]2O (stereo partly drawn)
active: HOP-62 0.00986 µM | 786-0 0.0074 µM | SF-268 0.00573 µM | SNB-75 0.0045 µM | IGROV-1 < 0.0025 µM | COLO 205 < 0.0025 µM | UACC-62 0.0199 µM | UO-31 0.826 µM | A549 0.00504 µM | RXF 393 0.00628 µM | TK-10 0.0588 µM | OVCAR-5 0.00743 µM | SK-MEL-2 < 0.0025 µM | KM12 < 0.0025 µM | RPMI-8226 < 0.0025 µM | ACHN 0.112 µM

On1c(-c2ccccc2)c(-c2ccccc2N2CCCC2)c2ccccc21
inactive: HOP-62 > 100 µM | 786-0 > 100 µM | SF-268 > 100 µM | SNB-75 > 100 µM | IGROV-1 > 100 µM | COLO 205 > 100 µM | UACC-62 > 100 µM | SK-MEL-28 > 100 µM | A549 > 100 µM | TK-10 > 100 µM | OVCAR-5 > 100 µM | SK-MEL-2 > 100 µM | KM12 > 100 µM | RPMI-8226 > 100 µM | ACHN > 100 µM

Cc1cc(N)c(C)c2c1[nH]c1ccc(O)cc12
inactive: HOP-62 > 100 µM | 786-0 91.8 µM | SF-268 > 100 µM | COLO 205 47.9 µM | SK-MEL-28 > 100 µM | UO-31 > 100 µM | A549 > 100 µM | TK-10 66.8 µM | OVCAR-5 > 100 µM | SK-MEL-2 > 100 µM | KM12 > 100 µM | RPMI-8226 48.4 µM | ACHN > 100 µM

C=CC1(CC)/C(=N\O)C(CC)(CC)C(=O)N1O (stereo not drawn)
inactive: HOP-62 > 100 µM | 786-0 > 100 µM | SNB-75 > 100 µM | IGROV-1 > 100 µM | COLO 205 > 100 µM | UACC-62 > 100 µM | SK-MEL-28 > 100 µM | UO-31 > 100 µM | A549 > 100 µM | RXF 393 > 100 µM | TK-10 > 100 µM | OVCAR-5 > 100 µM | SK-MEL-2 > 100 µM | KM12 > 100 µM | RPMI-8226 > 100 µM | ACHN > 100 µM

CCCCCCC1CCC2CCCC(C)N12 (stereo not drawn)
inactive: HOP-62 > 100 µM | 786-0 30.1 µM | SF-268 43.4 µM | SNB-75 39.8 µM | COLO 205 16 µM | UACC-62 > 100 µM | SK-MEL-28 53.6 µM | UO-31 19.7 µM | A549 77.1 µM | TK-10 39.2 µM | SK-MEL-2 28.2 µM | KM12 30.6 µM | RPMI-8226 22.9 µM | ACHN 68.1 µM

Cc1cc2c(c(C(N)=O)c1C)-c1cccc(Cl)c1C2=O
inactive: HOP-62 > 100 µM | 786-0 > 100 µM | SF-268 > 100 µM | SNB-75 6.7 µM | IGROV-1 > 100 µM | COLO 205 > 100 µM | UACC-62 > 100 µM | SK-MEL-28 > 100 µM | UO-31 41.6 µM | A549 > 100 µM | TK-10 > 100 µM | OVCAR-5 > 100 µM | SK-MEL-2 > 100 µM | KM12 > 100 µM | RPMI-8226 > 100 µM | ACHN > 100 µM

Cc1c(-c2nnc(-c3ccccc3)o2)c(=O)n(-c2ccccc2)n1C
inactive: HOP-62 > 100 µM | 786-0 > 100 µM | SF-268 > 100 µM | SNB-75 > 100 µM | IGROV-1 > 100 µM | COLO 205 > 100 µM | UACC-62 > 100 µM | SK-MEL-28 > 100 µM | UO-31 > 100 µM | A549 > 100 µM | RXF 393 > 100 µM | TK-10 > 100 µM | SK-MEL-2 > 100 µM | KM12 > 100 µM | RPMI-8226 > 100 µM | ACHN > 100 µM

CN1C2(c3ccccc3)c3c(-c4ccccc4)sc(-c4ccccc4)c3C1(c1ccccc1)C1C(=O)N(c3ccccc3)C(=O)C12 (stereo not drawn)
inactive: HOP-62 > 100 µM | 786-0 > 100 µM | SF-268 > 100 µM | SNB-75 > 100 µM | IGROV-1 > 100 µM | COLO 205 > 100 µM | UACC-62 > 100 µM | SK-MEL-28 > 100 µM | UO-31 > 100 µM | A549 > 100 µM | RXF 393 > 100 µM | TK-10 > 100 µM | OVCAR-5 > 100 µM | KM12 > 100 µM | RPMI-8226 > 100 µM | ACHN > 100 µM

COc1cc(C2C(Cl)C(=O)N2NC(=O)c2ccc(N)cc2)ccc1O (stereo not drawn)
inactive: HOP-62 35.9 µM | 786-0 19.1 µM | SNB-75 75.5 µM | IGROV-1 56.8 µM | COLO 205 20.8 µM | UACC-62 64.1 µM | SK-MEL-28 39.2 µM | UO-31 > 100 µM | A549 > 100 µM | TK-10 > 100 µM | OVCAR-5 56.6 µM | SK-MEL-2 59.8 µM | KM12 25.1 µM | RPMI-8226 78 µM | ACHN > 100 µM

CS(=O)(=O)c1ccc(-c2cc(-c3ccc(S(C)(=O)=O)cc3)[n+](-c3cc(-c4ccccc4)c([O-])c(-c4ccccc4)c3)c(-c3ccc(S(C)(=O)=O)cc3)c2)cc1
inactive: HOP-62 > 100 µM | 786-0 > 100 µM | SF-268 > 100 µM | IGROV-1 > 100 µM | COLO 205 > 100 µM | UACC-62 > 100 µM | SK-MEL-28 > 100 µM | UO-31 > 100 µM | A549 > 100 µM | RXF 393 > 100 µM | TK-10 > 100 µM | OVCAR-5 > 100 µM | SK-MEL-2 > 100 µM | KM12 > 100 µM | RPMI-8226 > 100 µM | ACHN > 100 µM

O=c1ccccc2cccc(O)c12
inactive: HOP-62 > 100 µM | 786-0 > 100 µM | SNB-75 > 100 µM | IGROV-1 > 100 µM | COLO 205 > 100 µM | UACC-62 > 100 µM | SK-MEL-28 > 100 µM | A549 > 100 µM | RXF 393 > 100 µM | TK-10 > 100 µM | RPMI-8226 > 100 µM | ACHN > 100 µM

C=CC1=C(C)/C(=C/C2=NC(=C\c3[nH]c(CC4NC(=O)C(C)/C4=C\C)c(C)c3CCC(=O)O)/C(CC(=O)O)=C2C)NC1=O (stereo not drawn)
inactive: HOP-62 > 100 µM | 786-0 > 100 µM | SF-268 > 100 µM | SNB-75 > 100 µM | IGROV-1 > 100 µM | COLO 205 > 100 µM | UACC-62 > 100 µM | SK-MEL-28 > 100 µM | UO-31 > 100 µM | A549 > 100 µM | RXF 393 > 100 µM | TK-10 > 100 µM | OVCAR-5 > 100 µM | SK-MEL-2 > 100 µM | KM12 > 100 µM | ACHN > 100 µM

Cc1ccc(NC(=O)CC2C(=O)Nc3ccccc3S2(=O)=O)cc1C (stereo not drawn)
inactive: 786-0 > 100 µM | SF-268 > 10 µM | SNB-75 > 100 µM | IGROV-1 > 100 µM | UACC-62 84.7 µM | SK-MEL-28 > 100 µM | UO-31 > 100 µM | A549 > 100 µM | RXF 393 > 100 µM | TK-10 > 100 µM | OVCAR-5 > 100 µM | SK-MEL-2 > 100 µM | RPMI-8226 62.8 µM | ACHN > 100 µM

Cc1ccccc1-n1c(=S)[nH]c2c(sc(=O)n2-c2ccccc2C)c1=O
inactive: HOP-62 > 100 µM | 786-0 > 100 µM | SF-268 > 100 µM | SNB-75 > 100 µM | IGROV-1 > 100 µM | COLO 205 > 100 µM | UACC-62 > 100 µM | SK-MEL-28 > 100 µM | UO-31 > 100 µM | A549 > 100 µM | RXF 393 > 100 µM | OVCAR-5 > 100 µM | SK-MEL-2 > 100 µM | KM12 > 100 µM | RPMI-8226 > 100 µM | ACHN > 100 µM
